Results reported in US20020002171A1, “Materials and methods for killing nematodes and nematode eggs” (priority 2000, published 2002).

System: Caenorhabditis elegans
Test: C. elegans L1 nematicidal dose response in 96-well plates, 5 day visual score (Example 2; same procedure for Example 7, Table 3)
Assay type: in vivo
Parameters: key to 5 Day Visual Score V1 / 5 Day Visual Score V2 / 5 Day Visual Score V3 / 5 Day Visual Score V4 / 5 Day Visual Score V6 / 5 Day Visual Score V5 / Initial HTS Run Visual Score / Follow-up HTS Run Visual Score: Dead: only stiff L1s (no movement); Dead (L4): worms are dead, but at a later larval stage; majority of worms are L1 (based on size) worms move when plate is tapped; majority of worms are L2 (based on size); majority of worms are L3 (based on size); majority of worms are L4 (based on size); AD: majority of worms are adult; #AD: 5 adult worms or less; B!: sterile (0-25 progeny); B: low broodsize (25-100 progeny); ˜B: moderate broodsize (100-250 progeny); <: reduced broodsize (250-500 progeny); OK: no effect (˜1000+ progeny)
Conditions: for 5 Day Visual Score V1 / 5 Day Visual Score V2 / 5 Day Visual Score V3 / 5 Day Visual Score V4 / 5 Day Visual Score V5 / 5 Day Visual Score V6: dose response; for 5 Day Visual Score V1: dilution V1, day 5; for 5 Day Visual Score V2: dilution V2, day 5; for 5 Day Visual Score V3: dilution V3, day 5; for 5 Day Visual Score V4: dilution V4, day 5; for 5 Day Visual Score V5: dilution V5, day 5; for 5 Day Visual Score V6: dilution V6, day 5
In short: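 L1 larvae, 20 per well in NGM with 1% E. coli HB101 and antibiotic/antimycotic, exposed to six 3-fold dilutions from 70 μM down to 0.3 μM (1.4% DMSO at top). Held at 20° C; viability scored visually under 100× dissecting microscope on day 5.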

Compound	Follow-up HTS Run % Run [%]	Follow-up HTS Run Visual Score	Follow-up HTS Run mOD [mOD]	Initial HTS Run % Run [%]	Initial HTS Run mOD [mOD]	5 Day Visual Score V1	5 Day Visual Score V2	5 Day Visual Score V3	5 Day Visual Score V4	5 Day Visual Score V5	5 Day Visual Score V6	Initial HTS Run Visual Score
CCN(Cc1ccccc1)c1nc(NCc2c(F)cccc2F)ns1 [compound 299]	115	L4	185	105	116	L4#AD/B	˜B (moderate broodsize (100-250 progeny))	˜B (moderate broodsize (100-250 progeny))	OK (no effect (˜1000+ progeny))	OK (no effect (˜1000+ progeny))	OK (no effect (˜1000+ progeny))	
C=CCN(CC=C)c1nc(NCc2c(F)cccc2F)ns1 [compound 300]	108	L4/AD/B!	174	108	119	Dead(L2/L3)		< (reduced broodsize (250-500 progeny))	OK (no effect (˜1000+ progeny))	OK (no effect (˜1000+ progeny))	OK (no effect (˜1000+ progeny))	
CN(Cc1ccccc1)c1nc(NCc2c(F)cccc2F)ns1 [compound 301]	127	B! (sterile (0-25 progeny))	204	111	122		< (reduced broodsize (250-500 progeny))	OK (no effect (˜1000+ progeny))	OK (no effect (˜1000+ progeny))	OK (no effect (˜1000+ progeny))	OK (no effect (˜1000+ progeny))	B!-Few Eggs
FC(F)(F)c1ccc(CNc2nsc(N3CCN(c4ncccn4)CC3)n2)cc1 [compound 303]	111		178	96	106	Dead	L1	Dead	OK (no effect (˜1000+ progeny))	< (reduced broodsize (250-500 progeny))		L3
Cc1cccc(C)c1N1CCN(c2nc(NCc3ccc(C(F)(F)F)cc3)ns2)CC1 [compound 304]	107		172	96	106	L1	OK (no effect (˜1000+ progeny))	OK (no effect (˜1000+ progeny))	OK (no effect (˜1000+ progeny))	OK (no effect (˜1000+ progeny))	< (reduced broodsize (250-500 progeny))	L4/AD/B!
CCN(c1nc(NCc2ccc(C(F)(F)F)cc2)ns1)C1CCCCC1 [compound 305]	112	L4	181	102	112		< (reduced broodsize (250-500 progeny))	OK (no effect (˜1000+ progeny))	OK (no effect (˜1000+ progeny))	OK (no effect (˜1000+ progeny))	OK (no effect (˜1000+ progeny))	
CCCCCCCCCCCCCCCCCCN(C)c1nc(NCc2ccc(C(F)(F)F)cc2)ns1 [compound 306]	102	L1	165	107	118	L1	L1		OK (no effect (˜1000+ progeny))	OK (no effect (˜1000+ progeny))	OK (no effect (˜1000+ progeny))	
